Experimental data published in patent US5223508A, “Pyridyl carboximidamide compounds useful in treating blood pressure” (Kirin Beer Kabushiki Kaisha, priority 1992, dated 1993).

What was measured:
animal = details: literature; cited from earlier work
potassium channel [1] = details: literature; cited from earlier work
potassium channel [2] = experiment: Potassium channel activating effect (86Rb efflux from rat thoracic aorta); design: species or system male Wistar rats; details: 10^-4M, 8 minutes
Experimental: Male Wistar rats (weighing 250-350 g) were dehematized to death, and thoracic aortae were rapidly isolated. The aorta was opened along the longitudinal axis to prepare a flat sheet. The preparation was loaded with ^86 Rb in the Krebs-Ringer solution which contained ^86 Rb in the concentration of 10 μCi/ml and was gassed with 95% O2 -5% CO2 at 37° C. for 2 hours. The preparation was then transferred to a Krebs-Ringer solution not containing ^86 Rb, and washed to remove excess radioactivity for 18 minutes by refreshing the solution every 2 minutes. Finally the preparation was placed into a Krebs-Ringer solution containing each compound (10^-4M) for 8 minutes.
The amount of ^86 Rb efflux from the preparation in each period was determined with a γ-counter.
The increment in efflux rate during the application of the compound was expressed as percent of the efflux before the application of the compound.

isolated rat aortae = experiment: Vasorelaxing effect on the isolated rat aortae (40 mM KCl contraction); design: species or system male Wistar rats; details: inhibition of 40 mM KCl-induced contraction, isolated rat aorta
Experimental: Vasorelaxing effect on the isolated rat aortae
The compounds of the present invention were tested for their physiological activities by measuring the tension of isolated rat aortae isometrically.
Thoracic aortae obtained from male Wistar rats (weighing 250-350 g) were cut into ring segments about 3 mm long. The ring preparation was placed in an organ bath filled with 10 ml of Krebs-Ringer solution that was maintained at 37° C. and gassed with 95% O2 -5% CO2.
The preparation in the organ bath was allowed to equilibrate under resting tension of 1 g. After equilibration period, the solution in the organ bath was replaced with an isotonic solution containing 40 mM KCl to contract the preparation.
After the contraction induced by KCl had reached plateau, the concentration-response relationship for the test compound was determined by means of cumulative addition.
The relaxation response of the test compounds was expressed as the percent inhibition of the contraction induced by KCl, and the IC50 value, which is a concentration required for inhibiting the contraction induced by KCl to an extent of 50%, was calculated by the Probit method from the concentration-response curve.

male ddY mice = experiment: Effect on hypoxia (survival time); format: in vivo; details: oral, 96% N2 -4% O2, mean ± S.E.M.
Experimental: Effect of the compound of the present invention on hypoxia
The effect of the compound of the present invention [test compound: N-cyano-N'-(2-nitroxyethyl)-3-pyridinecarboximidamide (compound (13))] on hypoxia was examined in male ddY mice (4 week old). Mice were exposed to a gas mixture of 96% N2 -4% O2 that was streamed in a flow rate of 5 l/min.
The time from the onset of the gas stream till the stop of respiration [survival time (sec)] was measured.
The test compound was orally administered in the dosage form of a 2% suspension in gum arabic 30 minutes before the onset of the gas streaming. The control group was administered a gum arabic suspension only.

| SMILES | effects in animal experiments (animal) | potassium channel activating effect (potassium channel [1]) | Increment of Efflux (86Rb) (potassium channel [2]) [%] | further results |
| --- | --- | --- | --- | --- |
| CC1(C)Oc2ccc(C#N)cc2[C@@H](N2CCCC2=O)[C@@H]1O (relative stereo) [chromakalim] | vasodilating effect, antihypertensive effect, coronary blood flow increasing effect, cerebral vasodilative effect and bronchodilatative effect | potassium channel activating effect |  |  |
| N#CNC(=NCc1ccccc1)c1cccnc1 [(17), N-cyano-N'-benzyl-3-pyridinecarboximidamide] |  |  | 135.41 |  |
| N#CNC(=NCCc1ccccc1)c1cccnc1 [(27), N-cyano-N'-(2-phenylethyl)-3-pyridinecarboximidamide] |  |  | 206.61 |  |
| COc1ccc(NC(=NC#N)c2cccnc2)c(OC)n1 [(40), N-cyano-N'-3-(2,6-dimethoxypyridine)-3-pyridinecarboximidamide] |  |  |  | IC50 (isolated rat aortae): 10 µM |
| N#CNC(=NCCO[N+](=O)[O-])c1ccncc1 [(41), N-cyano-N'-(2-nitroxyethyl)-4-pyridinecarboximidamide] |  |  | 126.88 |  |
| N#CNC(=NCCO[N+](=O)[O-])c1cccnc1 [Compound (13), N-cyano-N'-(2-nitroxyethyl)-3-pyridinecarboximidamide] |  |  | 213.53 | Survival Time (male ddY mice; 0.3 mg/kg): 130.27 ± 9.32 s; Survival Time (male ddY mice; 1.0 mg/kg): 201.00 ± 13.40 s; Survival Time (male ddY mice; 3.0 mg/kg): 523.15 ± 48.57 s |
| O=C(NCCO[N+](=O)[O-])c1cccnc1 [Nicorandil, nicorandil] | vasodilating effect, antihypertensive effect, coronary blood flow increasing effect, cerebral vasodilative effect and bronchodilatative effect | potassium channel activating effect |  |  |
| CC(N/C(=N\C#N)Nc1ccncc1)C(C)(C)C (centres unmarked) [pinacidil] | vasodilating effect, antihypertensive effect, coronary blood flow increasing effect, cerebral vasodilative effect and bronchodilatative effect | potassium channel activating effect |  |  |
